Experiment: Physical stability upon storage
Assay type: physicochemical
Conditions: drug substance; room temperature without need for refrigeration

SMILES: CCCNC(=O)c1cn2c(c1C)C(Nc1cc(C(=O)NC3CC3)ccc1C)=NCN2.Cl [p38 inhibitor]
- physical stability upon storage: good physical stability
